From US20230310624A1, “AFFIBODY-CYTOTOXIN CONJUGATE FOR ACTIVE TARGETED THERAPY OF TUMORS, NANOPARTICLE THEREOF, PREPARATION METHOD THEREOF AND APPLICATION THEREOF” (priority 2020, published 2023)
Where a SMILES comes first, the peptide text is derived from it. [ ]: non-standard residue; d: D form. The star is where a group is joined. Dolaproine = CO[C@@H]([C@@H]1CCCN1)[C@@H](C)C(=O)O; Dil = CC[C@H](C)[C@H](NC)[C@@H](CC(=O)O)OC; X1 = C[C@@H](N*)[C@@H](O)c1ccccc1; NMeV = CN[C@H](C(=O)O)C(C)C

What was measured:
SKOV-3 tumor [1] = assay: therapeutic effects on tumors of SKOV-3 tumor-bearing nude mice; type: in vivo
Description: A cell suspension of SKOV-3 cells in logarithmic growth phase is prepared at a concentration of 4.0><10^6 cells/mL, and inoculated subcutaneously into the right anterior axillary of nude mice, 200 μL per mouse; when the volume of tumor is around 100 mm^3, the mice are randomly selected into 4 groups, 5 in each group, which are respectively a PBS control group, a MMAE 0.6 mg/kg group, a ZHER2:342-MMAE nanoparticle group (the content of MMAE is 0.4 mg/kg), and a ZHER2:342-MMAE nanoparticle group (the content of MMAE is 0.6 mg/kg), wherein 200 μl PBS is injected for the PBS group, 0.6 mg/kg of MMAE is injected for the MMAE 0.6 mg/kg group, ZHER2:342-MMAE (containing 0.4 mg/kg MMAE) is injected for the ZHER2:342-MMAE group (containing 0.4 mg/kg MMAE), and ZHER2:342-MMAE (the content of MMAE is 0.6 mg/kg) is injected for the ZHER2:342-MMAE group (the content of MMAE is 0.6 mg/kg), once every 3 days. After each administration, the survival of tumor-bearing nude mice is observed, and the body weight and tumor size of the mice are measured and photographed for preservation.

[2] = in rats; cited from earlier work
SKOV-3 tumor [3] = assay: long-term cycle imaging in SKOV-3 tumor-bearing nude mice; type: in vivo
Description: A cell suspension of SKOV-3 cells in logarithmic growth phase is prepared at a concentration of 4.0×10^6 cells/mL, and inoculated subcutaneously into the right anterior axillary of nude mice, 200 μL per mouse; when the volume of tumor is around 500 mm^3, two mice are randomly selected as a control group and an experimental group. […] After 4 h and 12 h of injection, ZKKS-Mulaurora imaging system is used to take pictures and analyze the fluorescence intensity of the whole body of the mice.

CC[C@H](C)[C@@H]([C@@H](CC(=O)N1CCC[C@H]1[C@H](OC)[C@@H](C)C(=O)N[C@H](C)[C@@H](O)c1ccccc1)OC)N(C)C(=O)[C@@H](NC(=O)[C@@H](NC)C(C)C)C(C)C [MMAE, monomethyl auristatin E] (H-[NMeV]V[Dil][Dolaproine]-X1)
body weight of the mice (SKOV-3 tumor [1]; MMAE 0.6 mg/kg, after administration): drops sharply
survival of tumor-bearing nude mice (SKOV-3 tumor [1]; MMAE (content) 0.6 mg/kg, once every 3 days): all died

CC(=O)O[C@H]1C(=O)[C@@]2(C)[C@H]([C@H](OC(=O)c3ccccc3)[C@]3(O)C[C@H](OC(=O)[C@H](O)[C@@H](NC(=O)c4ccccc4)c4ccccc4)C(C)=C1C3(C)C)[C@]1(OC(C)=O)CO[C@@H]1C[C@@H]2O [paclitaxel]
blood half-life period [2]: 1.1 h

cyanine dye 5.5 [Cy5.5]
whole-body fluorescence distribution (SKOV-3 tumor [3]; after 4 hours of injection): no obvious presence in the mouse body
whole-body fluorescence distribution (SKOV-3 tumor [3]; after 12 hours): basically completely metabolized
